Measurements reported in publication PMC3302888, “Small-Animal PET Imaging of Amyloid-Beta Plaques with [^11C]PiB and Its Multi-Modal Validation in an APP/PS1 Mouse Model of Alzheimer's Disease” (PLoS ONE, 2012).
Values joined by “and” are separate entries in the source; they are usually repeats but may differ in a detail not shown here. Equal values may be shown once. Read-outs that look alike come from different tables or passages of the source.

What was measured:
human brain = tested on: human brain; set-up: method as in PMID 16291932; conditions: humans; cited from earlier work
[1] = tested on: postmortem human brain tissue homogenate (temporal cortex); assay: Radioligand saturation binding assay with [^3H]PiB, human brain homogenate
Procedure: (§1) The frozen mouse hemi-forebrains (50 mg/ml) and human brain samples (100 mg/ml) for the radioligand binding assay were first prepared in tissue homogenization buffer (20 mM Tris base, 1 mM EDTA, 1 mM EGTA, cOmplete Protease Inhibitor Cocktail (Roche Applied Science, Mannheim, Germany)) using a 30 ml hand glass homogenizer (Dounce type, tight fit) (Sartorius Stedim Biotech, Göttingen, Germany) which was used for subsequent ELISA analysis. The stocks were then supplemented with 250 mM sucrose and stored at −70°C for later tracer binding analysis. All other tissue samples were processed for ELISA as reported by Willuweit et al.
(§2) All brain homogenates were diluted in PBE buffer (10 mM dibasic sodium phosphate, 1 mM EDTA, 10% EtOH) to a final concentration of 1000 µg/ml. Synthetic human Aβ1–40 fibrils (EZBioLab, Carmel, IN, USA) were prepared as described by Lockhart et al. (0.5 mg/ml, pH 7.4, 200 rpm at 37°C for 48 h) and were used as positive control at a final concentration of 10 µg/ml (Figure S8).
(§3) Nonspecific binding was determined in the presence of 3 µM unlabeled PiB (ABX, Radeberg, Germany) including 1 h preincubation. Each tissue sample was deployed on two 96-well cell culture plates (Greiner Bio-One, Frickenhausen, Germany) to a final reaction volume of 280 µl per well using 8-channel electronic pipettes (Mettler Toledo, Giessen, Germany) giving 24 octuples of data points per sample.
(§4) The bound and free fractions were seperated by vacuum filtration through 0.3% polyethyleneimine-pretreated GF/B glass filtermats (GE Healthcare/Whatman, Dassel, Germany) using a semi-automated Harvester 96 Mach II M (Tomtec, Hamden, CT, USA). A constant automated 5-cycle pulse-wash program (optimized for flow rate and volume) guaranteed stable harvesting with 1.2 ml PBE washing per well at 2 psi.
(§5) Filters were cut and incubated in Aquasafe300plus scintillator (Zinsser Analytic, Frankfurt, Germany) for 36 h before counting in a Wallac WinSpectral 1414 liquid scintillation counter (PerkinElmer, Rodgau, Germany).
(§6) The specific binding signal under these assay conditions was between 56% (human) and 91% (synthetic protein). Data were analyzed using GraphPad Prism version 5.0 d for Mac (GraphPad Software, La Jolla, CA, USA) to estimate the apparent dissociation constant (Kd), the maximal number of binding sites (Bmax) and the in vitro binding potential (BP) using the one-site and two-site global analysis models.
(§7) Division by Kd in nanomolar units directly results in BP.

APP/PS1 mouse brain = tested on: APP/PS1 mouse brain; set-up: method as in PMID 16291932; conditions: very old hemizygous APP/PS1 animals; classical Scatchard analysis; cited from earlier work
[2] = tested on: mouse brain tissue homogenate (APP/PS1 hemi-forebrain); assay: Radioligand saturation binding assay with [^3H]PiB, mouse brain homogenate
Procedure: as §1, §2, §3, §4, §5, §6, §7

Aβ plaques = assay: Small-animal PET of mouse brain with [^11C]PiB, cerebellum as reference region; assay type: in vivo; conditions: for BPND (MRTM2, Ichise et al., 2003) mean ± SD: neocortex target, cerebellum reference; for PET BPND neocortex: [^3H]PiB/[^11C]PiB cocktail, 30 min scan
Source text: Most of the small-animal PET data was acquired with a microPET FOCUS F120 scanner (Siemens Medical Solutions, Malvern, USA). In the combined multi-modal experiment PET data for the four animals was acquired with a docked Siemens Inveon PET/CT system (Siemens Medical Solutions, Knoxville, USA), [66], [67].
After induction of anesthesia and placement of the catheter systems, the animals were placed with their heads in the center of the field of view and were fixed in the scanner in prone head first position (HFP). At the beginning of the PET scanning procedure, a 9 min transmission scan (^68Ge rod source, Focus F120) or CT scan (Inveon) was performed in all animals.
[^11C]PiB was given via the catheter system intravenously in a slow bolus, followed by flushing with isotonic saline solution such that the total applied volume was 0.22±0.06 ml. The amount of injected activity was controlled real-time with registered prompts such that they ranged between 150000 to 200000 at the end of [^11C]PiB application, ensuring a dead time <5% at 30 min p.i.. The radioactivity in the syringe was measured immediately before and after injection with a Capintec CRC 15R (Capintec Inc, NJ, USA) dose calibrator. The time between measurements was 2 to 3 min.
Dynamic data acquisition was performed in 3D listmode for 30 or 60 min starting immediately with injection of the tracer. The emission data were normalized and corrected for decay and dead time. The resulting sinograms were reconstructed with FBP (filtered back-projection using a ramp filter with a cut-off at the Nyquist frequency) into 2, 3, 6, 12, 60 and 120 frames of equal length used for motion correction, ratio measurements and image production and 52 frames (24×10 s, 12×30 s, 10×120 s, 6×300 s) and 162 frames (120×1 s, 24×10 s, 8×30 s, 10×300 s) for time-activity-curve (TAC) generation. The image volume consisted of 128×128×95 voxels, with a size of 0.866×0.866×0.796 mm^3 per voxel for the Focus F120 scanner and 128×128×159 voxels, with a size of 0.776×0.776×0.796 mm^3 per voxel for the Inveon scanner.
To assess varying PiB retention of individual animals within the study collective and to verify the consistency of results, three quantification methods were used similar to Maeada et al.. First, [^11C]PiB uptake in the target region was divided by [^11C]PiB uptake in the cerebellum as measured in a static 10 min-frame (20–30 min). Second, the tissue ratio methods as proposed by Ito et al. were calculated. Third, the multilinear reference tissue model 2 (MRTM2, [45]) was fitted to cortex time-activity curves (TACs) (merged neocortex) after reduction of parameters by estimating individual efflux rate constants for [^11C]PiB from the reference region (k2′) with the MRTM [45] and four regional cortical time-activity curves.
Parametric images of [^11C]PiB retention (BPND maps (MRTM2)) were generated for four representative mice (Figure 2 and S1). For all analyses, the cerebellum was used as the reference region. To quantify the dynamic data, TACs with high initial time resolution (162 frames: 120×1 s, 24×10 s, 8×30 s, 10×300 s) were used (Figure 1).
Then, the radioactivity of the whole animal was measured in a Capintec dose calibrator, the animal killed by decapitation, the whole brain taken out and blood drawn for biodistribution and radioactivity measurement. One half of the brain was dissected for regional brain biodistribution (olfactory system, telencephalon, cerebellum and remaining brain structures (diencephalon, midbrain)) and deep-frozen immediately after gamma counting for later ELISA analysis of soluble and insoluble Aβx–40 and Aβx–42. […]

CNc1ccc(-c2nc3ccc(O)cc3s2)cc1 [[^3H]PiB]
BP of high-affinity binding sites (human brain): 636 | in vitro binding potential (BP) ([1]; huAD-0 (mild human AD, Cerad-0, Braak II), single binding site model): ~0 | in vitro binding potential (BP) ([1]; huAD-C (severe human AD, Cerad-C, Braak V), single binding site model): 38 and 38.2±4.7 and 38.2 | tracer concentration at which saturation binding was reached ([1]; huAD-C homogenate): around 8 nM | Bmax ([1]; huAD-C homogenate, single binding site model): 200 ± 12 fmol/mg | Kd ([1]; huAD-C homogenate, single binding site model, read-out: Kd): 5.2 ± 0.9 nM | Bmax of the high-affinity component ([1]; huAD-C, two site binding model): 156.7 ± 7.3 fmol/mg | Kd ([1]; huAD-C, two site binding model, read-out: Kd of the high-affinity component): 3.4 ± 1.4 nM | in vitro binding potential (BP) ([1]; huCTL (human control brain, Cerad-0, Braak I), single binding site model): ~0 | BP of the high-affinity component (APP/PS1 mouse brain): 78 | in vitro binding potential (BP) ([2]; mouse control brain (msCTL), total binding not different to nonspecific binding): ~0 | in vitro binding potential (BP) ([2]; tg-old mouse brain tissue, single binding site model): 11.9±0.9 and 11.9 | in vitro binding potential (BP) ([2]; tgtg-old mouse brain tissue, single binding site model): 69 and 69.2±2.7 and 69.2 | Bmax of the high-affinity component ([2]; tgtg-old tissue, two site binding model): 289.3 ± 123.9 fmol/mg | Kd ([2]; tgtg-old tissue, two site binding model, read-out: Kd of the high-affinity component): 5.7 ± 4.1 nM | in vitro binding potential (BP) ([2]; tgtg-young mouse brain tissue, single binding site model): 14.3±0.9 and 14.3

[11CH3]Nc1ccc(-c2nc3ccc(O)cc3s2)cc1 [[^11C]PiB, N-[^11C-methyl]-6-OH-BTA-1]
BPND (MRTM2, Ichise et al., 2003) mean ± SD (Aβ plaques; ctl-old (N = 5)): -0.08 ± 0.01 | PET BPND neocortex (Aβ plaques; individual animals AD1, AD2 (tgtg-young, 9 months)): 0.06 | PET BPND neocortex (Aβ plaques; individual animals CTL1, CTL2 (ctl-young)): −0.06 and −0.07 | BPND (MRTM2, Ichise et al., 2003) mean ± SD (Aβ plaques; tg-old (N = 5)): 0.28 ± 0.06 | BPND (MRTM2, Ichise et al., 2003) mean ± SD (Aβ plaques; tgtg-old (N = 7)): 0.51 ± 0.13 | BPND (MRTM2, Ichise et al., 2003) mean ± SD (Aβ plaques; tgtg-young (N = 5)): 0.12 ± 0.04
